Experimental data published in patent US20260001928A1 (CORTERIA PHARMACEUTICALS, priority 2022, published 2026).
*1 amine or outer side, *2 acyl side, *3 side chain or, on linkers, in order; H or OH if unused. Where a SMILES comes first, the peptide text is derived from it. Side-chain parts run from the residue outwards. [ ]: non-standard residue; d: D form. The star is where a group is joined. C18 diacid = O=C(O)CCCCCCCCCCCCCCCCC(=O)*; γGlu = O=C(O)[C@H](CCC(=O)[*:2])N[*:1]; NMeI = CC[C@H](C)[C@H](NC)C(=O)O; αMeL = CC(C)C[C@](C)(N)C(=O)O; Pentanoyl = CCCCC(=O)*; AEEA = NCCOCCOCC(=O)O; Aib = CC(C)(N)C(=O)O

What was measured:
CFR1R receptor = molecular target: T1, CFR1R receptor (Homo sapiens, UniProt P34998); assay: Activity at anti-target CFR1R receptor, cAMP assay in CRF1R-overexpression CHO-K1 cells; format: cell-based; details: 100% = Sauvagine at 100 nM; for EC50: cAMP
T1 construct: host or cells: CHO-K1 (clone 2)
T1 sequence (P34998 24-415): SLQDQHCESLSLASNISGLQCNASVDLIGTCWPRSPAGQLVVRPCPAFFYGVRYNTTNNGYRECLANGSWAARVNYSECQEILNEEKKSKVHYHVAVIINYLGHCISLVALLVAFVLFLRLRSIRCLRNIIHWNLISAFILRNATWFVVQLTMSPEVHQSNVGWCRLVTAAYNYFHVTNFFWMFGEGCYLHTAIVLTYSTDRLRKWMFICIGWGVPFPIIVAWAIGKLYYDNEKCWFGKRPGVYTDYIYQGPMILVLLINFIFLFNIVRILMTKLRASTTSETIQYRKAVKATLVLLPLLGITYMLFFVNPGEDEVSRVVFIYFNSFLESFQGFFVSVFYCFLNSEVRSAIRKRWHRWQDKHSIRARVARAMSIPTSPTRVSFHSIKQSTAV
In short: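 Uses frozen stocks of CHO-K1 clone 2 cells overexpressing human CRF1R, plated at 4000 cells/well final, with cAMP measured by the same protocol as the TeloHAEC line. Full-activation control: 100 nM Sauvagine.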

human CRF2a receptor = molecular target: T2, human CRF2a receptor (Homo sapiens, UniProt Q13324); assay: Activity at human CRF2a receptor, cAMP functional assay in TeloHEAC cells; format: cell-based; details: TeloHEAC cells stably expressing human CRF2a receptor, relative to urocortin 2 (100 nM = 100%)
T2 construct: expressed in transfected cells; host or cells: TeloHEAC cells
T2 sequence (Q13324 1-411): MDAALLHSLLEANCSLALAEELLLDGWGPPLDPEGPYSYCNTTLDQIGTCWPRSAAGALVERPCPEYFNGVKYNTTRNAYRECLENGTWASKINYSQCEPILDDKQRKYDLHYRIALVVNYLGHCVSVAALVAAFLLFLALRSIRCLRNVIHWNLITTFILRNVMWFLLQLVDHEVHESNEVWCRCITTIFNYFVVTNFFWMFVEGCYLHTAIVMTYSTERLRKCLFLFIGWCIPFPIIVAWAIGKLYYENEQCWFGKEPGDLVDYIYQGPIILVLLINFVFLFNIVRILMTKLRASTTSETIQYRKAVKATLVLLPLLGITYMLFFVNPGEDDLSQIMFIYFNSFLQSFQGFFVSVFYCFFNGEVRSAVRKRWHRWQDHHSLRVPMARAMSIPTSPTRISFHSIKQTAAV
In short: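 cAMP accumulation was measured by HTRF 665/620 nm ratio after 30 min at 37° C compound exposure (16 twofold dilutions) of CRF2a-expressing TeloHEAC cells, 10000/well, in HEPES-buffered HBSS plus IBMX. Activity was normalised to urocortin 2 at 100 nM (100%), and EC50 was the concentration giving half-maximal activation.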

| Emax (% I) (CFR1R receptor) | EC50 (CFR1R receptor) [nM] | EC50 (human CRF2a receptor) [nM] | Compound |
| --- | --- | --- | --- |
| 5 | > 250 | 1.62 | CC[C@H](C)[C@H](NC)C(=O)N[C@H](C(=O)N[C@@H](CC(C)C)C(=O)N[C@@H](CO)C(=O)N[C@@H](CC(C)C)C(=O)N[C@@H](CC(=O)O)C(=O)N[C@@H](C(=O)N1CCC[C@H]1C(=O)N[C@H](C(=O)N[C@@H](CCCCN)C(=O)N[C@@](C)(CC(C)C)C(=O)N[C@@H](CCCCNC(=O)COCCOCCNC(=O)COCCOCCNC(=O)CC[C@H](NC(=O)CCCCCCCCCCCCCCCCC(=O)O)C(=O)O)C(=O)N[C@@H](CCCCN)C(=O)N[C@H](C(=O)N[C@@H](CC(C)C)C(=O)N[C@@H](CC(C)C)C(=O)N[C@@H](CCC(=O)O)C(=O)N[C@@H](CCC(N)=O)C(=O)N[C@@H](CCC(=O)O)C(=O)N[C@@H](CCCCN)C(=O)N[C@@H](CCC(N)=O)C(=O)N[C@@H](CCCCN)C(=O)N[C@@H](CCCCN)C(=O)N[C@@H](CCC(N)=O)C(=O)N[C@@H](CCCNC(=N)N)C(=O)N[C@@H](CCC(=O)O)C(=O)N[C@@H](CCC(N)=O)C(=O)N[C@@H](C)C(=O)N[C@@H](CCC(=O)O)C(=O)N[C@H](C(=O)N[C@@H](CC(N)=O)C(=O)NC(C)(C)C(=O)N[C@@H](CCC(N)=O)C(=O)N[C@H](C(=O)N[C@@H](CC(C)C)C(=O)N[C@@H](C)C(=O)N[C@@H](CCC(N)=O)C(=O)N[C@H](C(N)=O)C(C)C)[C@@H](C)CC)[C@@H](C)O)[C@@H](C)CC)[C@@H](C)CC)C(C)C)C(C)C [compound 119] (H-[NMeI]VLSLD[dV]PIK[αMeL]K([AEEA-AEEA-γGlu-C18 diacid])KILLEQEKQKKQREQAETN[Aib]QILAQV-NH2) |
| 3 | > 250 | 1.33 | CCCCC(=O)N[C@H](C(=O)N[C@@H](CC(C)C)C(=O)N[C@@H](CO)C(=O)N[C@@H](CC(C)C)C(=O)N[C@@H](CC(=O)O)C(=O)N[C@@H](C(=O)N1CCC[C@H]1C(=O)N[C@H](C(=O)N[C@@H](CCCCN)C(=O)N[C@@H](CC(C)C)C(=O)N[C@@H](CCCCNC(=O)COCCOCCNC(=O)COCCOCCNC(=O)CC[C@H](NC(=O)CCCCCCCCCCCCCCCCC(=O)O)C(=O)O)C(=O)N[C@@H](CCCCN)C(=O)N[C@H](C(=O)N[C@@H](CC(C)C)C(=O)N[C@@H](CC(C)C)C(=O)N[C@@H](CCC(=O)O)C(=O)N[C@@H](CCC(N)=O)C(=O)N[C@@H](CCC(=O)O)C(=O)N[C@@H](CCCCN)C(=O)N[C@@H](CCC(N)=O)C(=O)N[C@@H](CCCCN)C(=O)N[C@@H](CCCCN)C(=O)N[C@@H](CCC(N)=O)C(=O)N[C@@H](CCCNC(=N)N)C(=O)N[C@@H](CCC(=O)O)C(=O)N[C@@H](CCC(N)=O)C(=O)N[C@@H](C)C(=O)N[C@@H](CCC(=O)O)C(=O)N[C@H](C(=O)N[C@@H](CC(N)=O)C(=O)NC(C)(C)C(=O)N[C@@H](CCC(N)=O)C(=O)N[C@H](C(=O)N[C@@H](CC(C)C)C(=O)N[C@@H](C)C(=O)N[C@@H](CCC(N)=O)C(=O)N[C@H](C(N)=O)C(C)C)[C@@H](C)CC)[C@@H](C)O)[C@@H](C)CC)[C@@H](C)CC)C(C)C)C(C)C [compound 120] (Pentanoyl-VLSLD[dV]PIKLK([AEEA-AEEA-γGlu-C18 diacid])KILLEQEKQKKQREQAETN[Aib]QILAQV-NH2) |
| 5 | > 250 | 0.67 | CCCCC(=O)N[C@H](C(=O)N[C@@H](CC(C)C)C(=O)N[C@@H](CO)C(=O)N[C@@H](CC(C)C)C(=O)N[C@@H](CC(=O)O)C(=O)N[C@@H](C(=O)N1CCC[C@H]1C(=O)N[C@H](C(=O)N[C@@H](CCCCN)C(=O)N[C@@H](CC(C)C)C(=O)N[C@@H](CCCCNC(=O)COCCOCCNC(=O)COCCOCCNC(=O)CC[C@H](NC(=O)CCCCCCCCCCCCCCCCC(=O)O)C(=O)O)C(=O)N[C@@H](CCCCN)C(=O)N[C@H](C(=O)N[C@@H](CC(C)C)C(=O)N[C@@H](CC(C)C)C(=O)N[C@@H](CCC(=O)O)C(=O)N[C@@H](CCC(N)=O)C(=O)N[C@@H](CCC(=O)O)C(=O)N[C@@H](CCCCN)C(=O)N[C@@H](CCC(N)=O)C(=O)N[C@@H](CCCCN)C(=O)N[C@@H](CCCCN)C(=O)N[C@@H](CCC(N)=O)C(=O)N[C@@H](CCCNC(=N)N)C(=O)N[C@@H](CCC(=O)O)C(=O)N[C@@H](CCC(N)=O)C(=O)N[C@@H](C)C(=O)N[C@@H](CCC(=O)O)C(=O)N[C@H](C(=O)N[C@@H](CC(N)=O)C(=O)N[C@@H](C)C(=O)N[C@@H](CCC(N)=O)C(=O)N[C@H](C(=O)N[C@@H](CC(C)C)C(=O)N[C@@H](C)C(=O)N[C@@H](CCC(N)=O)C(=O)N[C@H](C(N)=O)C(C)C)[C@@H](C)CC)[C@@H](C)O)[C@@H](C)CC)[C@@H](C)CC)C(C)C)C(C)C [compound 122] (Pentanoyl-VLSLD[dV]PIKLK([AEEA-AEEA-γGlu-C18 diacid])KILLEQEKQKKQREQAETNAQILAQV-NH2) |
| 14 | > 250 | 0.7 | CCCCC(=O)N[C@H](C(=O)N[C@@H](CC(C)C)C(=O)N[C@@H](CO)C(=O)N[C@@H](CC(C)C)C(=O)N[C@@H](CC(=O)O)C(=O)N[C@@H](C(=O)N1CCC[C@H]1C(=O)N[C@H](C(=O)N[C@@H](CCCCN)C(=O)N[C@@](C)(CC(C)C)C(=O)N[C@@H](CCCCNC(=O)COCCOCCNC(=O)COCCOCCNC(=O)CC[C@H](NC(=O)CCCCCCCCCCCCCCCCC(=O)O)C(=O)O)C(=O)N[C@@H](CCCCN)C(=O)N[C@H](C(=O)N[C@@H](CC(C)C)C(=O)N[C@@H](CC(C)C)C(=O)N[C@@H](CCC(=O)O)C(=O)N[C@@H](CCC(N)=O)C(=O)N[C@@H](CCC(=O)O)C(=O)N[C@@H](CCCCN)C(=O)N[C@@H](CCC(N)=O)C(=O)N[C@@H](CCCCN)C(=O)N[C@@H](CCCCN)C(=O)N[C@@H](CCC(N)=O)C(=O)N[C@@H](CCCNC(=N)N)C(=O)N[C@@H](CCC(=O)O)C(=O)N[C@@H](CCC(N)=O)C(=O)N[C@@H](C)C(=O)N[C@@H](CCC(=O)O)C(=O)N[C@H](C(=O)N[C@@H](CC(N)=O)C(=O)NC(C)(C)C(=O)N[C@@H](CCC(N)=O)C(=O)N[C@H](C(=O)N[C@@H](CC(C)C)C(=O)N[C@@H](C)C(=O)N[C@@H](CCC(N)=O)C(=O)N[C@H](C(N)=O)C(C)C)[C@@H](C)CC)[C@@H](C)O)[C@@H](C)CC)[C@@H](C)CC)C(C)C)C(C)C [compound 123] (Pentanoyl-VLSLD[dV]PIK[αMeL]K([AEEA-AEEA-γGlu-C18 diacid])KILLEQEKQKKQREQAETN[Aib]QILAQV-NH2) |
